According to article PMC5725709, “PufQ regulates porphyrin flux at the haem/bacteriochlorophyll branchpoint of tetrapyrrole biosynthesis via interactions with ferrochelatase” (Molecular Microbiology, 2017):

Biological target: T1, FeCH (ferrochelatase) (Cereibacter sphaeroides, UniProt Q3IYK5, Y58H)
T1 construct: gene HemH; His-tagged, pET14b, E. coli Rosetta pLysS
Experiment: spectrophotometric ferrochelatase assay (DIX consumption at […] nm, isosbestic reference […] nm)
Assay type: biochemical
Conditions: 1 µM FeCH, 30 µM DIX, 100 µM CoCl2, 25 mM Tris pH 7.4, 0.15% Tween 80; active, substantially lower than wild type

T1 sequence (Q3IYK5 entry or part of it Y58H): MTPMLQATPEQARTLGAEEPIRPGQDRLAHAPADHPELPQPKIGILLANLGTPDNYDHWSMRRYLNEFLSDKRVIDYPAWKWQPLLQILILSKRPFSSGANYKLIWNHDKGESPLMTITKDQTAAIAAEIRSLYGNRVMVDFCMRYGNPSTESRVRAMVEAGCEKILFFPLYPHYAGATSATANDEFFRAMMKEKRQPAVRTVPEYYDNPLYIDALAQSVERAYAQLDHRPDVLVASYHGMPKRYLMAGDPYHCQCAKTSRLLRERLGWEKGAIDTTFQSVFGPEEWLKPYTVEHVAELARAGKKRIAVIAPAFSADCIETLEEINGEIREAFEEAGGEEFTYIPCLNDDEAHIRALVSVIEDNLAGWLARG

For `CC1=C(CCC(=O)O)c2cc3nc(cc4[nH]c(cc4C)cc4[nH]c(cc1n2)cc4C)C(C)=C3CCC(=O)O` [deuteroporphyrin IX], the “spectrophotometric ferrochelatase assay (DIX consumption at 496 nm, isosbestic r)” value was “the ΔpufQ PSvar version of the FeCH protein is active”.
